Test: xn = mol fraction of the nth substance listed
Conditions: Liquid, Pycnometric method

COC(=O)OC [dimethyl carbonate] + O=C=O
mass density [kg/m3]
Conditions	332.85 K	337.45 K
8220 kPa, x1 = 0.0242	–	212
8340 kPa, x1 = 0.0242	–	217
8440 kPa, x1 = 0.0242	–	222
8530 kPa, x1 = 0.0242	–	226
8640 kPa, x1 = 0.0242	–	231
8730 kPa, x1 = 0.0242	–	236
8820 kPa, x1 = 0.0242	–	242
8920 kPa, x1 = 0.0242	–	247
9030 kPa, x1 = 0.0242	–	253
9130 kPa, x1 = 0.0242	–	259
9240 kPa, x1 = 0.0242	–	266
9350 kPa, x1 = 0.0242	–	272
9460 kPa, x1 = 0.0242	–	279
9570 kPa, x1 = 0.0242	–	287
9690 kPa, x1 = 0.0242	–	295
9760 kPa, x1 = 0.1484	–	790
9810 kPa, x1 = 0.0242	–	304
9820 kPa, x1 = 0.118	773	–
9910 kPa, x1 = 0.0242	353	–
9920 kPa, x1 = 0.1484	826	–
9930 kPa, x1 = 0.0242	–	311
9960 kPa, x1 = 0.086	682	–
10010 kPa, x1 = 0.0242	362	–
10030 kPa, x1 = 0.086	686	–
10040 kPa, x1 = 0.118	780	–
10060 kPa, x1 = 0.1484	–	795
10090 kPa, x1 = 0.0481	484	–
10110 kPa, x1 = 0.0242	371	–
10180 kPa, x1 = 0.118	–	737
10200 kPa, x1 = 0.0242	381	–
10200 kPa, x1 = 0.086	695	–
10250 kPa, x1 = 0.0481	506	–
10290 kPa, x1 = 0.1484	832	–
10300 kPa, x1 = 0.0242	391	–
10350 kPa, x1 = 0.0481	517	–
10350 kPa, x1 = 0.118	788	743
10380 kPa, x1 = 0.0242	399	–
10380 kPa, x1 = 0.086	704	–
10420 kPa, x1 = 0.0481	525	–
10450 kPa, x1 = 0.0481	–	450
10450 kPa, x1 = 0.086	–	631
10480 kPa, x1 = 0.086	–	634
10490 kPa, x1 = 0.0242	410	–
10520 kPa, x1 = 0.0481	538	–
10530 kPa, x1 = 0.086	711	–
10530 kPa, x1 = 0.1484	–	804
10550 kPa, x1 = 0.086	–	640
10580 kPa, x1 = 0.0242	417	–
10620 kPa, x1 = 0.118	–	751
10630 kPa, x1 = 0.086	–	644
10640 kPa, x1 = 0.0481	550	–
10670 kPa, x1 = 0.0481	–	470
10720 kPa, x1 = 0.1484	839	–
10740 kPa, x1 = 0.0481	560	–
10740 kPa, x1 = 0.118	796	–
10780 kPa, x1 = 0.0481	–	481
10800 kPa, x1 = 0.086	–	654
10820 kPa, x1 = 0.1484	–	809
10860 kPa, x1 = 0.086	724	–
10890 kPa, x1 = 0.0481	574	492
10940 kPa, x1 = 0.118	–	760
11010 kPa, x1 = 0.0481	–	504
11060 kPa, x1 = 0.0481	588	–
11080 kPa, x1 = 0.086	–	669
11160 kPa, x1 = 0.0481	–	517
11200 kPa, x1 = 0.118	805	–
11230 kPa, x1 = 0.1484	–	816
11250 kPa, x1 = 0.1484	846	–
11260 kPa, x1 = 0.0481	603	–
11270 kPa, x1 = 0.086	738	–
11290 kPa, x1 = 0.118	–	769
11310 kPa, x1 = 0.0481	–	530
11380 kPa, x1 = 0.086	–	684
11480 kPa, x1 = 0.0481	–	543
11500 kPa, x1 = 0.0481	619	–
11650 kPa, x1 = 0.0481	–	558
11700 kPa, x1 = 0.118	–	779
11720 kPa, x1 = 0.1484	–	823
11730 kPa, x1 = 0.1484	851	–
11740 kPa, x1 = 0.118	815	–
11750 kPa, x1 = 0.086	751	–
11760 kPa, x1 = 0.0481	636	–
11780 kPa, x1 = 0.086	–	700
11850 kPa, x1 = 0.0481	–	573
11990 kPa, x1 = 0.0481	650	–
12100 kPa, x1 = 0.0481	–	589
12160 kPa, x1 = 0.118	822	–
12190 kPa, x1 = 0.118	–	789
12240 kPa, x1 = 0.1484	–	830
12260 kPa, x1 = 0.1484	858	–
12270 kPa, x1 = 0.086	765	716
12280 kPa, x1 = 0.0481	663	–
12360 kPa, x1 = 0.0481	–	607
12630 kPa, x1 = 0.0481	678	–
12660 kPa, x1 = 0.118	–	798
12700 kPa, x1 = 0.118	830	–
12740 kPa, x1 = 0.1484	–	838
12750 kPa, x1 = 0.086	775	–
12750 kPa, x1 = 0.1484	863	–
12800 kPa, x1 = 0.086	–	732
13170 kPa, x1 = 0.086	–	742
13190 kPa, x1 = 0.118	837	–
13220 kPa, x1 = 0.118	–	807
13230 kPa, x1 = 0.086	784	–
13240 kPa, x1 = 0.1484	–	843
13270 kPa, x1 = 0.1484	869	–
13640 kPa, x1 = 0.118	–	814
13700 kPa, x1 = 0.118	843	–
13730 kPa, x1 = 0.086	–	755
13730 kPa, x1 = 0.1484	–	849
13760 kPa, x1 = 0.086	794	–
13800 kPa, x1 = 0.1484	874	–
14170 kPa, x1 = 0.118	–	821
14220 kPa, x1 = 0.086	–	766
14230 kPa, x1 = 0.118	850	–
14270 kPa, x1 = 0.1484	–	855
14290 kPa, x1 = 0.086	803	–
14520 kPa, x1 = 0.1484	881	–
14710 kPa, x1 = 0.086	–	775
14720 kPa, x1 = 0.086	810	–
14730 kPa, x1 = 0.118	–	829
14760 kPa, x1 = 0.118	856	–
14780 kPa, x1 = 0.1484	–	861
15020 kPa, x1 = 0.1484	885	–
15150 kPa, x1 = 0.086	–	783
15280 kPa, x1 = 0.118	–	836
15290 kPa, x1 = 0.118	861	–
15330 kPa, x1 = 0.086	819	–
15350 kPa, x1 = 0.1484	–	866
15460 kPa, x1 = 0.1484	889	–
15740 kPa, x1 = 0.086	–	792
15740 kPa, x1 = 0.118	866	–
15760 kPa, x1 = 0.086	825	–
15770 kPa, x1 = 0.118	–	842
15800 kPa, x1 = 0.1484	–	870
15940 kPa, x1 = 0.1484	893	–
16200 kPa, x1 = 0.086	831	–
16250 kPa, x1 = 0.086	–	801
16370 kPa, x1 = 0.118	872	–
16400 kPa, x1 = 0.118	–	849
16600 kPa, x1 = 0.1484	–	881
16670 kPa, x1 = 0.1484	899	–
